This note sets out measurements from patent US20230092294A1, “COMPOSITIONS AND METHODS FOR POTENTIATING IMMUNE RESPONSE” (Kumquat Biosciences Inc., priority 2019, published 2023).

The structures appear in SMILES notation. A value given as a limit tells only on which side of the number the result lay.

In assay [1] the test system is HER-2 positive tumor line (OVCAR-3). Briefly: CAR-T killing assay (Example 7). It counts as cell-based, human. The text has this: HER-2 specific CAR-T cells (CAR-Ts) were generated by transducing primary human CD3+ T cells (Discovery Life Sciences) with a lentivirus expressing a chimeric antigen receptor specific to human HER2, as well as GFP (Creative Bio). Prior to transduction, T cells were stimulated overnight with anti-CD3 and anti-CD28 antibodies coated onto magnetic beads (Invitrogen) at a 1:1 bead-to-cell ratio. Four days after transduction, the beads were removed and the following day CAR-Ts were sorted based on GFP expression and expanded in hIL7 ([…]) (Peprotech) and hIL15 (5 ng/mL) (Peprotech) for an additional 8 days. […]
CAR-Ts were pretreated with 0.1% DMSO (vehicle control) or a PTPN22 inhibitor (Compound A) for 1-2.5 hours prior to co-culture with cell lines at indicated concentrations. […] Tumor killing was assessed by comparing DMSO-treated CAR-Ts to PTPN22 inhibitor-treated CAR-Ts using either flow cytometry or Incucyte imaged-based assessment of tumor cell viability, at various effector:target ratios. Percent killing was assessed by calculating the amount of viable cells at a given time point as compared to untreated tumor cells (spontaneous release, marked “No CAR-T” in FIG. 2), tumor cells treated with PTPN22 inhibitor, and tumor cells cultured with DMSO treated CAR-T cells as a control.

Assay [2] concerns HER2-positive OVCAR-3 ovarian cancer cells. Briefly: Additional CAR-T killing assay (Example 11). Type of assay: cell-based, human. The conditions noted are these: HER2 scFv-CD28-CD3z-CAR-T cells from Donor 1 or Donor 2, compound-treated 1h at 1, 3 or 10 μM; co-culture 2 h; vs DMSO; FIG. 5. The text has this:
HER2 scFv-CD28-CD3z-CAR-T (Creative Bio) lentiviral particles were generated via transfection of 293T cells using Lipofectamine 2000 transfection reagent (ThermoFisher) according to manufacturer's instructions Human CD3+ T cells were negatively selected from peripheral blood mononuclear cells (PBMCs) (Discovery Life Sciences) from two individual healthy donors (Donor 1, Donor 2) using EasySep Human T cell Isolation Kit (StemCell Technologies #17951) and subsequently activated at a concentration of 0.5×10^6 cells/mL with Human T Expander Dynabeads (Gibco) (Thermo Fisher Scientific #11141D) at a ratio of 1 bead per cell in CTS Optimizer T cell expansion serum free medium (SFM) (Thermo Fisher Scientific #A1048501) supplemented with recombinant human IL-7 (10 ng/mL) and recombinant human IL-15 (5 ng/mL) (Peprotech #200-02). […]
For the killing assay, HER2-positive OVCAR-3 (ATCC #HTB-161) ovarian cancer cells stably transduced with IncuCyte Nuclight Red Lentivirus (Essen Biosciences #4706) in OVCAR media (RPMI 1640+20% FBS, 1% Pen-Strep +0.01 mg/mL human insulin) were plated (1.5×10^4 cells/well) in 96-well flat-bottom plates and incubated at 37° C. to allow for overnight adherence to serve as target cells. […] Tumor cell death was quantified on a ZE5 flow cytometer (Bio-Rad).

Turning to `O=C(O)c1cc2c(C#Cc3cccc(C(F)(F)F)c3)c(-c3ccccc3)oc2cc1O` [Compound A], the “tumor cell killing activity of CAR-T cells” value is “higher tumor cell killing activity” in assay [1] (HER-2 specific CAR-Ts pretreated 1-2.5 hours then washed, compared to control cells treated with DMSO, FIG. 2) and “higher tumor cell killing activity” in assay [2]. For the same compound, in assay [1] (HER-2 specific CAR-Ts transiently pretreated 1-2.5 hours then washed, compared to DMSO control, FIG. 3), the “increase in cell killing” value is at least 1.5 fold.
